Data: patent US20100062073A1, “PHARMACEUTICAL COMPOSITIONS COMPRISING NANOPARTICLES COMPRISING ENTERIC POLYMERS CASEIN” (priority 2006, published 2010)

Experiment: Solubility of drug in PBS
Format: physicochemical
Conditions: phosphate buffered saline (PBS), pH 6.5, aqueous buffer
Protocol: At a pH of greater than about 5, the enteric polymer is aqueous soluble. By “aqueous soluble” is meant that when the polymer is administered alone at a solids concentration of 0.2 mg/mL to a phosphate buffered saline (PBS) solution consisting of an aqueous solution of 20 mM sodium phosphate (Na2HPO4), 47 mM potassium phosphate (KH2PO4), 87 mM NaCl, and 0.2 mM KCl, adjusted to pH 6.5 with NaOH, the polymer has a solubility of greater than 0.1 mg/mL.
The Tm of Drug 1 is 10° C., and the Tg was determined by DSC analysis to be −16° C.

solubility: < 0.1 µg/mL
Compound: CCc1cc(Oc2cccc(N(Cc3cccc(OC(F)(F)C(F)F)c3)C[C@@H](O)C(F)(F)F)c2)ccc1Cl [Drug 1, (2R)-3-[[3-(4-chloro-3-ethylphenoxy)phenyl][[3-(1,1,2,2-tetrafluoroethoxy)phenyl]methyl]amino]-1,1,1-trifluoro-2-propanol]
